Laboratory results reported in US10407430B2, “Janus kinase 1 selective inhibitor and pharmaceutical use thereof” (YANG JI CHEMICAL CO., LTD., priority 2015, dated 2019).

Experiments:
Assay type in all cases: biochemical
Human JAK2 = biological target: T1, Human JAK2 (Homo sapiens, UniProt O60674); assay: In-vitro kinase inhibition test, JAK2; conditions: for inhibition at 1 µM: compound at 1 uM, read-out: JAK2 kinase-phosphorylation inhibitory level (% inhibition)
T1 construct: purchased Millipore, Germany
Description: (§1) Human-derived JAK1, JAK2, JAK3 and TYK2 (Millipore, Germany) were used as kinases. Each kinase was diluted with an appropriate buffer as described below, and then mixed with reaction reagents.
(§2) 3-morpholinopropane-1-sulfonic acid (MOPS) and EDTA were dissolved in deionized water at a concentration of 20 mM and 1 mM, respectively, and then 100 μL of β-mercaptoethanol, 10 μL of Brij-35™, 5 mL of glycerol, and 100 mg of bovine serum albumin (BSA), each per 100 mL of the solution, were added to the solution, thereby preparing a dilution buffer for JAK2, JAK3, and TYK2.
(§3) Each compound was dissolved in a 100%-DMSO solution at a concentration of about 50 μM. This prepared solution was reacted with reaction reagents in each well of a 96-well plate until a final concentration of the compound reached 1 μM. A detailed experimental method for each kinase is as follows.
(§4) After reaction for about 40 minutes at room temperature, the reaction was stopped by adding 5 uL of a 3% (v/v) phosphoric acid solution.
(§5) The inhibitory levels (% inhibition) represent a percentage of reduction in phosphorylation activity in each test group with respect to the phosphorylation activity of a corresponding kinase in a negative control group lacking any of the compounds synthesized in the examples. % inhibition=[(Scintillation value of Test compound non-treatment group−Scintillation value of Test compound treatment group)/(Scintillation value of Test compound non-treatment group)]×100

Human JAK3 = biological target: T2, Human JAK3 (Homo sapiens, UniProt P52333); assay: In-vitro kinase inhibition test, JAK3; conditions: for inhibition at 1 µM: compound at 1 uM, read-out: JAK3 kinase-phosphorylation inhibitory level (% inhibition)
T2 construct: purchased Millipore, Germany
T2 sequence (P52333 1-1124): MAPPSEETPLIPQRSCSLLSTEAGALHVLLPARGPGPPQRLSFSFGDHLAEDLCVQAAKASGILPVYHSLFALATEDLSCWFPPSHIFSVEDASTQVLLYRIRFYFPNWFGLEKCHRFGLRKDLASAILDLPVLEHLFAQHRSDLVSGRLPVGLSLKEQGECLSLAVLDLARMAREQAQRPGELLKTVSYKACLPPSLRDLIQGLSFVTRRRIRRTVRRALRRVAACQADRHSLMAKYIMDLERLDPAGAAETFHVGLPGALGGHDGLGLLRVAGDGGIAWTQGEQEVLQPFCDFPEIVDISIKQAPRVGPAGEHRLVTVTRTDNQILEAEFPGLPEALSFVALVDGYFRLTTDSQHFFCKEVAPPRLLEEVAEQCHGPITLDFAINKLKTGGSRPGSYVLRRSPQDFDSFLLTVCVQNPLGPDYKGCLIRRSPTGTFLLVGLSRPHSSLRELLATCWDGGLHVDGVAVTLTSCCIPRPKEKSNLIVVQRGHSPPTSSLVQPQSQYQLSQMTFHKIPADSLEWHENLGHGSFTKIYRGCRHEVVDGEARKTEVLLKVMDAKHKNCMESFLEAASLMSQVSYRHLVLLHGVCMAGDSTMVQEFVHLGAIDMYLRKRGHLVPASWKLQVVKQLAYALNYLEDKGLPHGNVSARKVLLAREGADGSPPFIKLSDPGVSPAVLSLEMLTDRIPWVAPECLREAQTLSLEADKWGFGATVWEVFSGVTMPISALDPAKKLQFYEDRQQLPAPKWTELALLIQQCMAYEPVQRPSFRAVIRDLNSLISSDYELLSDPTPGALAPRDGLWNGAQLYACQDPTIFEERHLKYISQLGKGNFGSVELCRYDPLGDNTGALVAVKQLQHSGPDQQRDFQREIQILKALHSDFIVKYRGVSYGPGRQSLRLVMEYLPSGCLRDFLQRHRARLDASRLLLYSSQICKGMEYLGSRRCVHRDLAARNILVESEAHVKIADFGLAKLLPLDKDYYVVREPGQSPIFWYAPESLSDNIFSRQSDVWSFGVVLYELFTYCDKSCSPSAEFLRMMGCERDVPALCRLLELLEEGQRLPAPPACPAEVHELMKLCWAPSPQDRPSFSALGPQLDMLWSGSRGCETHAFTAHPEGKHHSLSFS

Human JAK1 = biological target: T3, Human JAK1 (Homo sapiens, UniProt P23458); assay: In-vitro kinase inhibition test, JAK1; conditions: for inhibition at 1 µM: compound at 1 uM, read-out: JAK1 kinase-phosphorylation inhibitory level (% inhibition); for JAK1/JAK2: ratio of % inhibition of JAK1 to JAK2 at 1 uM
T3 construct: purchased Millipore, Germany

Human TYK2 = biological target: T4, Human TYK2 (Homo sapiens, UniProt P29597); assay: In-vitro kinase inhibition test, TYK2; conditions: for inhibition at 1 µM: compound at 1 uM, read-out: TYK2 kinase-phosphorylation inhibitory level (% inhibition)
T4 construct: purchased Millipore, Germany
T4 sequence (P29597 whole entry): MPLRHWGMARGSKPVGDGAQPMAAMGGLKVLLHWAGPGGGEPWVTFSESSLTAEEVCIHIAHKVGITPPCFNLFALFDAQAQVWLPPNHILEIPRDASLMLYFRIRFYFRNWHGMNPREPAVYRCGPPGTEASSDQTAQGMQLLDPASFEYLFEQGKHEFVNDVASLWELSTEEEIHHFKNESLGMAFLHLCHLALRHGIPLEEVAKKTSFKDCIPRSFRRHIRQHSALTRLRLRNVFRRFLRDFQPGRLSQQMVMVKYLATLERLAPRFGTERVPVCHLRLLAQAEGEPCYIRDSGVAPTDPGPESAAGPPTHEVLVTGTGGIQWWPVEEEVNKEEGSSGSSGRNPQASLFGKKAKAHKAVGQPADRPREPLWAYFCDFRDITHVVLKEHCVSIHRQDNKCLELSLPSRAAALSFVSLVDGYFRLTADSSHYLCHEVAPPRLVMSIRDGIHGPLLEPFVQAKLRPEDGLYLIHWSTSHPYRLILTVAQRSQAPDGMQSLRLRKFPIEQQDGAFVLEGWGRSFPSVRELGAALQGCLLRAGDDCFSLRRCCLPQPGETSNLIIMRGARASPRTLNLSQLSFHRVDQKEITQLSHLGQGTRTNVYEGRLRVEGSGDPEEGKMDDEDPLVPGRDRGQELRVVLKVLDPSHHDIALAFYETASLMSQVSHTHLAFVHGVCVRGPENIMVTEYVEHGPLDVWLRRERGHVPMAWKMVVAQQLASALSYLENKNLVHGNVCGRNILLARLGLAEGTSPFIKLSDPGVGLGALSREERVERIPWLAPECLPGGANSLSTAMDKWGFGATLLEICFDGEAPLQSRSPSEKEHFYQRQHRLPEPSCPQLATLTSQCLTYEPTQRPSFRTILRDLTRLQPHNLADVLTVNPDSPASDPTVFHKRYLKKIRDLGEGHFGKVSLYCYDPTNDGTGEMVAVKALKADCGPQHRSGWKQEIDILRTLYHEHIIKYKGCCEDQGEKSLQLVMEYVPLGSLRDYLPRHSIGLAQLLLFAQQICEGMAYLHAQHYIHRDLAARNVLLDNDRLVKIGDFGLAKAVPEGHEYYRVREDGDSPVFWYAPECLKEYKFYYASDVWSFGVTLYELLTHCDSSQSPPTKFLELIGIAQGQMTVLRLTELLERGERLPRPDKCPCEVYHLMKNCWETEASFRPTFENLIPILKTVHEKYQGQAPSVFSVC
Description: as §1, §2, §3, §4, §5

T3 sequence (P23458 whole entry): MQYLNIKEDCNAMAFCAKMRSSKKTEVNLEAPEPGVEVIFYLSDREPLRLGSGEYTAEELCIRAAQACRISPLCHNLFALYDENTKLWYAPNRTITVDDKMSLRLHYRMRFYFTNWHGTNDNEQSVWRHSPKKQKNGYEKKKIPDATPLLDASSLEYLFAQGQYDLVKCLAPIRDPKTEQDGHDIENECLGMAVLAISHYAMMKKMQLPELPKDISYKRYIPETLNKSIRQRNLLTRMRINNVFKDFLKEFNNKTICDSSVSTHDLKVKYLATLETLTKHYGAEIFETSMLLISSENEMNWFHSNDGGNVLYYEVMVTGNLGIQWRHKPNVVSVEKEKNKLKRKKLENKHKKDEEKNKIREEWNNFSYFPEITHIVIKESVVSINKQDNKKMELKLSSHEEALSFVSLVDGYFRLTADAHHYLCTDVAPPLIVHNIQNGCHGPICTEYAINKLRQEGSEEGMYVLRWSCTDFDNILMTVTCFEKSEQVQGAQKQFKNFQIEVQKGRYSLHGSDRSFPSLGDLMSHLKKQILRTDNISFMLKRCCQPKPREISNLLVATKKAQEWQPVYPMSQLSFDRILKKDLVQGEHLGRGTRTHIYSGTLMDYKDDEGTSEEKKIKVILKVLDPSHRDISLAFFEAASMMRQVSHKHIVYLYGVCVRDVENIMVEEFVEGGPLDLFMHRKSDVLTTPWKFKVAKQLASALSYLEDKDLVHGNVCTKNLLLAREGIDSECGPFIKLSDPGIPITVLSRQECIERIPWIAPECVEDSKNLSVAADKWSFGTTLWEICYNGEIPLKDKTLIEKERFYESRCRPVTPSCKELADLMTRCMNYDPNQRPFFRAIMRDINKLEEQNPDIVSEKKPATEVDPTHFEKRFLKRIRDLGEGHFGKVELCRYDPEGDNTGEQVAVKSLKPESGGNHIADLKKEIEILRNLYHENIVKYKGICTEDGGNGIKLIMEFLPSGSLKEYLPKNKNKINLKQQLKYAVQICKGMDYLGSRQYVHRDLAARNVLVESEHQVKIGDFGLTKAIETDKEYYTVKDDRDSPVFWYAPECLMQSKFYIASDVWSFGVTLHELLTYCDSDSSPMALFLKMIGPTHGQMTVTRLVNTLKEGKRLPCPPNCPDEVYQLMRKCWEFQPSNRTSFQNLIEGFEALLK
T1 sequence (O60674 whole entry): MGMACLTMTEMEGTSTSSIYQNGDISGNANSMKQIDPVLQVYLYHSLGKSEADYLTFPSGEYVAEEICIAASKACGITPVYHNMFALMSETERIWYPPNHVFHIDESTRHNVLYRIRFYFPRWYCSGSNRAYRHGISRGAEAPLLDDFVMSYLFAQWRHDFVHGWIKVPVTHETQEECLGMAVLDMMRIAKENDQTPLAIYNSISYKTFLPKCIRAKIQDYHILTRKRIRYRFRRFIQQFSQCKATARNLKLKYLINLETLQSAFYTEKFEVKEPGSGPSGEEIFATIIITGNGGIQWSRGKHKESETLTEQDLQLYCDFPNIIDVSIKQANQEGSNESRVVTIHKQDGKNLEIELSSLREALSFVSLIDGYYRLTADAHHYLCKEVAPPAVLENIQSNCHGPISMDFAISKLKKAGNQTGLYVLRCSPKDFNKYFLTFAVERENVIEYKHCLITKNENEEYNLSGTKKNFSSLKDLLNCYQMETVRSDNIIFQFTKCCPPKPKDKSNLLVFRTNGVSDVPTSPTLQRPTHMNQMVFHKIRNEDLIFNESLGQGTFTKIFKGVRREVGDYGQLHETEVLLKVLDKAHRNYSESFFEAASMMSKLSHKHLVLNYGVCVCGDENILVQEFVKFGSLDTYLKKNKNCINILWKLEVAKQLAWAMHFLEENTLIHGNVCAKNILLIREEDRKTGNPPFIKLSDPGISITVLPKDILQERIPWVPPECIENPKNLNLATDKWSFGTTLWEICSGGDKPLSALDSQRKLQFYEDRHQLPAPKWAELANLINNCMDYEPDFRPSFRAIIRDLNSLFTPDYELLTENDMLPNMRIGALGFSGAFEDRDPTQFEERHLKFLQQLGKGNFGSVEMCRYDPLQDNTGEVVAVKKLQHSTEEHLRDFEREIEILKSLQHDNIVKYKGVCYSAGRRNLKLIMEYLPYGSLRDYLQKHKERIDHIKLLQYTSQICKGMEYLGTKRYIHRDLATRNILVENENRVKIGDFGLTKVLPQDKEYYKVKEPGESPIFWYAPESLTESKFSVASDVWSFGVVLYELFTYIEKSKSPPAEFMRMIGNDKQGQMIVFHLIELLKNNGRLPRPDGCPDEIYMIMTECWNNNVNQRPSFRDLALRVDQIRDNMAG

Work on `CN(c1ncnc2[nH]ccc12)[C@@H]1CCN(S(=O)(=O)c2ccccc2[N+](=O)[O-])C1` [Example 21, (R)—N-methyl-N-(1-((2-nitrophenyl)sulfonyl)pyrrolidine-3-yl)-7H-pyrrolo[2,3-d]pyrimidine-4-amine] yielded an inhibition at 1 µM (Human JAK2) of 48%, an inhibition at 1 µM (Human JAK3) of 21% and an inhibition at 1 µM (Human JAK1) of 93%. It also gave a JAK1/JAK2 (Human JAK1) of 1.94 and an inhibition at 1 µM (Human TYK2) of 67%.
`CN(c1ncnc2[nH]ccc12)[C@@H]1CCN(S(=O)(=O)c2cccc([N+](=O)[O-])c2)C1` [Example 22, (R)—N-methyl-N-(1-((3-nitrophenyl)sulfonyl)pyrrolidine-3-yl)-7H-pyrrolo[2,3-d]pyrimidine-4-amine] gave an inhibition at 1 µM (Human JAK2) of 97%, an inhibition at 1 µM (Human JAK3) of 74% and an inhibition at 1 µM (Human JAK1) of 100%. For the same molecule, the JAK1/JAK2 (Human JAK1) was 1.03 and the inhibition at 1 µM (Human TYK2) was 99%.
Work on `CN(c1ncnc2[nH]ccc12)[C@@H]1CCN(S(=O)(=O)c2ccc([N+](=O)[O-])cc2)C1` [Example 23, (R)—N-methyl-N-(1-((4-nitrophenyl)sulfonyl)pyrrolidine-3-yl)-7H-pyrrolo[2,3-d]pyrimidine-4-amine] yielded an inhibition at 1 µM (Human JAK2) of 84%, an inhibition at 1 µM (Human JAK3) of 31% and an inhibition at 1 µM (Human JAK1) of 100%. For the same molecule, the JAK1/JAK2 (Human JAK1) was 1.19 and the inhibition at 1 µM (Human TYK2) was 94%.
In the case of `Cc1cccc(S(=O)(=O)N2CC[C@@H](N(C)c3ncnc4[nH]ccc34)C2)c1` [Example 24, (R)—N-methyl-N-(1-(m-tolylsulfonyl)pyrrolidine-3-yl)-7H-pyrrolo[2,3-d]pyrimidine-4-amine], the inhibition at 1 µM (Human JAK2) is reported as 53%, the inhibition at 1 µM (Human JAK3) is reported as 8% and the inhibition at 1 µM (Human JAK1) is reported as 95%. The JAK1/JAK2 (Human JAK1) was 1.79 and the inhibition at 1 µM (Human TYK2) was 87%.
Work on `Cc1ccc(S(=O)(=O)N2CC[C@@H](N(C)c3ncnc4[nH]ccc34)C2)cc1` [Example 25, (R)—N-methyl-N-(1-tosylpyrrolidine-3-yl)-7H-pyrrolo[2,3-d]pyrimidine-4-amine] yielded an inhibition at 1 µM (Human JAK2) of 42%, an inhibition at 1 µM (Human JAK3) of 10% and an inhibition at 1 µM (Human JAK1) of 97%. It also gave a JAK1/JAK2 (Human JAK1) of 2.31 and an inhibition at 1 µM (Human TYK2) of 68%.
With `COc1ccc(S(=O)(=O)N2CC[C@@H](N(C)c3ncnc4[nH]ccc34)C2)cc1` [Example 26, (R)—N-(1-((4-methoxyphenyl)sulfonyl)pyrrolidine-3-yl)-N-methyl-7H-pyrrolo[2,3-d]pyrimidine-4-amine] the inhibition at 1 µM (Human JAK2) was 44%, the inhibition at 1 µM (Human JAK3) was 10% and the inhibition at 1 µM (Human JAK1) was 98%. The JAK1/JAK2 (Human JAK1) was 2.23 and the inhibition at 1 µM (Human TYK2) was 71%.
With `CN(c1ncnc2[nH]ccc12)[C@@H]1CCN(S(=O)(=O)c2ccc(C(F)(F)F)cc2)C1` [Example 27, (R)—N-methyl-N-(1-((4-(trifluoromethyl)phenyl)sulfonyl)pyrrolidine-3-yl)-7H-pyrrolo[2,3-d]pyrimidine-4-amine] the inhibition at 1 µM (Human JAK2) was 21%, the inhibition at 1 µM (Human JAK3) was 4% and the inhibition at 1 µM (Human JAK1) was 96%. The JAK1/JAK2 (Human JAK1) was 4.57 and the inhibition at 1 µM (Human TYK2) was 56%.
With `CN(c1ncnc2[nH]ccc12)[C@@H]1CCN(S(=O)(=O)c2ccc3ccccc3c2)C1` [Example 28, (R)—N-methyl-N-(1-(naphthalene-2-ylsulfonyl)pyrrolidine-3-yl)-7H-pyrrolo[2,3-d]pyrimidine-4-amine] the inhibition at 1 µM (Human JAK2) was 57%, the inhibition at 1 µM (Human JAK3) was 23% and the inhibition at 1 µM (Human JAK1) was 99%. The JAK1/JAK2 (Human JAK1) was 1.74 and the inhibition at 1 µM (Human TYK2) was 82%.
`CN(c1ncnc2[nH]ccc12)[C@@H]1CCN(S(=O)(=O)N2CCCCC2)C1` [Example 29, (R)—N-methyl-N-(1-(piperidine-1-ylsulfonyl)pyrrolidine-3-yl)-7H-pyrrolo[2,3-d]pyrimidine-4-amine] gave an inhibition at 1 µM (Human JAK2) of 21%, an inhibition at 1 µM (Human JAK3) of 10% and an inhibition at 1 µM (Human JAK1) of 91%. The JAK1/JAK2 (Human JAK1) was 4.33 and the inhibition at 1 µM (Human TYK2) was 65%.
With `CN(c1ncnc2[nH]ccc12)[C@@H]1CCN(S(=O)(=O)N2CCOCC2)C1` [Example 30, (R)—N-methyl-N-(1-(morpholinosulfonyl)pyrrolidine-3-yl)-7H-pyrrolo[2,3-d]pyrimidine-4-amine] the inhibition at 1 µM (Human JAK2) was 6%, the inhibition at 1 µM (Human JAK3) was 13% and the inhibition at 1 µM (Human JAK1) was 87%. The JAK1/JAK2 (Human JAK1) was 14.50 and the inhibition at 1 µM (Human TYK2) was 44%.
`N#Cc1cccc(S(=O)(=O)N2CC[C@@H](Nc3ncnc4[nH]ccc34)C2)c1` [Example 32, (R)-3-((3-((7H-pyrrolo[2,3-d]pyrimidine-4-yl)amino)pyrrolidine-1-yl)sulfonyl)benzonitrile] gave an inhibition at 1 µM (Human JAK2) of 29%, an inhibition at 1 µM (Human JAK3) of 3% and an inhibition at 1 µM (Human JAK1) of 67%. It also gave a JAK1/JAK2 (Human JAK1) of 2.31 and an inhibition at 1 µM (Human TYK2) of 30%.
`CCN(c1ncnc2[nH]ccc12)[C@@H]1CCN(C(=O)CC#N)C1` [Example 33, (R)-3-(3-(ethyl(7H-pyrrolo[2,3-d]pyrimidine-4-yl)amino)pyrrolidine-1-yl)-3-oxopropanenitrile] was tested, and the inhibition at 1 µM (Human JAK2) was 91%, the inhibition at 1 µM (Human JAK3) was 63% and the inhibition at 1 µM (Human JAK1) was 97%. The JAK1/JAK2 (Human JAK1) was 1.07 and the inhibition at 1 µM (Human TYK2) was 94%.
With `CCN(c1ncnc2[nH]ccc12)[C@@H]1CCN(S(=O)(=O)c2cccc(C#N)c2)C1` [Example 34, (R)-3-((3-(ethyl(7H-pyrrolo[2,3-d]pyrimidine-4-yl)amino)pyrrolidine-1-yl)sulfonyl)benzonitrile] the inhibition at 1 µM (Human JAK2) was 86%, the inhibition at 1 µM (Human JAK3) was 19% and the inhibition at 1 µM (Human JAK1) was 97%. The JAK1/JAK2 (Human JAK1) was 1.13 and the inhibition at 1 µM (Human TYK2) was 92%.
In the case of `N#CCC(=O)N1CC[C@@H](N(CC2CC2)c2ncnc3[nH]ccc23)C1` [Example 35, (R)-3-(3-((cyclopropylmethyl)(7H-pyrrolo[2,3-d]pyrimidine-4-yl)amino)pyrrolidine-1-yl)-3-oxopropanenitrile], the inhibition at 1 µM (Human JAK2) is reported as 34%, the inhibition at 1 µM (Human JAK3) is reported as 14% and the inhibition at 1 µM (Human JAK1) is reported as 88%. For the same molecule, the JAK1/JAK2 (Human JAK1) was 2.59 and the inhibition at 1 µM (Human TYK2) was 37%.
`N#Cc1cccc(S(=O)(=O)N2CC[C@@H](N(CC3CC3)c3ncnc4[nH]ccc34)C2)c1` [Example 36, (R)-3-((3-((cyclopropylmethyl)(7H-pyrrolo[2,3-d]pyrimidine-4-yl)amino)pyrrolidine-1-yl)sulfonyl)benzonitrile] showed an inhibition at 1 µM (Human JAK2) of 40%, an inhibition at 1 µM (Human JAK3) of 10% and an inhibition at 1 µM (Human JAK1) of 87%. It also gave a JAK1/JAK2 (Human JAK1) of 2.18 and an inhibition at 1 µM (Human TYK2) of 57%.
Work on `CN(c1ncnc2[nH]ccc12)C1CCN(C(=O)CC#N)CC1` [Example 37, 3-(4-(methyl(7H-pyrrolo[2,3-d]pyrimidine-4-yl)amino)piperidine-1-yl)-3-oxopropanenitrile] yielded an inhibition at 1 µM (Human JAK2) of 1%, an inhibition at 1 µM (Human JAK3) of 8% and an inhibition at 1 µM (Human JAK1) of 49%. For the same molecule, the JAK1/JAK2 (Human JAK1) was 49.00 and the inhibition at 1 µM (Human TYK2) was -3%.
With `CN(c1ncnc2[nH]ccc12)C1CCN(S(=O)(=O)c2ccccc2)CC1` [Example 38, N-methyl-N-(1-(phenylsulfonyl)piperidine-4-yl)-7H-pyrrolo[2,3-d]pyrimidine-4-amine] the IC50 (Human JAK2) was 19 nM, the inhibition at 1 µM (Human JAK2) was 94% and the IC50 (Human JAK3) was 147 nM. It also gave an inhibition at 1 µM (Human JAK3) of 77%, an IC50 (Human JAK1) of 4.2 nM and an inhibition at 1 µM (Human JAK1) of 97%. It also gave a JAK1/JAK2 (Human JAK1) of 1.03, an IC50 (Human TYK2) of 18.8 nM and an inhibition at 1 µM (Human TYK2) of 97%.
Molecule `CN(c1ncnc2[nH]ccc12)C1CCN(S(=O)(=O)c2cccc(C#N)c2)CC1` [Example 39, 3-((4-(methyl(7H-pyrrolo[2,3-d]pyrimidine-4-yl)amino)piperidine-1-yl)sulfonyl)benzonitrile] has an inhibition at 1 µM (Human JAK2) of 59%, an inhibition at 1 µM (Human JAK3) of 1% and an inhibition at 1 µM (Human JAK1) of 87%. It also gave a JAK1/JAK2 (Human JAK1) of 1.47 and an inhibition at 1 µM (Human TYK2) of 69%.
`CN(c1ncnc2[nH]ccc12)[C@@H]1CCCN(C(=O)CC#N)C1` [Example 40, (R)-3-(3-(methyl(7H-pyrrolo[2,3-d]pyrimidine-4-yl)amino)piperidine-1-yl)-3-oxopropanenitrile] showed an inhibition at 1 µM (Human JAK2) of 83%, an inhibition at 1 µM (Human JAK3) of 81% and an inhibition at 1 µM (Human JAK1) of 99%. The JAK1/JAK2 (Human JAK1) was 1.19 and the inhibition at 1 µM (Human TYK2) was 93%.
`CN(c1ncnc2[nH]ccc12)[C@@H]1CCCN(S(=O)(=O)c2cccc(C#N)c2)C1` [Example 41, (R)-3-((3-(methyl(7H-pyrrolo[2,3-d]pyrimidine-4-yl)amino)piperidine-1-yl)sulfonyl)benzonitrile] was tested, and the inhibition at 1 µM (Human JAK2) was 64%, the inhibition at 1 µM (Human JAK3) was 39% and the inhibition at 1 µM (Human JAK1) was 92%. It also gave a JAK1/JAK2 (Human JAK1) of 1.44 and an inhibition at 1 µM (Human TYK2) of 79%.
